How the values were obtained:
[1] = system: P. berghei liver stage (PbLuc); assay: P. berghei luciferase liver stage (PbLuc) assay in HepG2-A16-CD81 hepatocytes; format: cell-based, Plasmodium berghei; details: Plasmodium berghei; for IC50: HepG2-A16-CD81, 12pt dose response, read-out: PbLuc 12pt dose response: IC50; for Emax: HepG2-A16-CD81, 48 h, 12pt dose response, maximum inhibition
[2] = molecular target: recombinant firefly luciferase (Photinus pyralis, UniProt P08659); assay: biochemical; details: dose response; for Emax: maximum inhibition, read-out: rLuc inhibition dose response: Maximum inhibition (%); for IC50: read-out: rLuc inhibition dose response: IC50
[3] = HepG2 cytotoxicity screening (CellTiter-Glo); details: human, uninfected HepG2-A16-CD81 (EGFP) hepatocytes
[4] = system: HepG2-A16-CD81 hepatocytes; assay: HepG2 cytotoxicity screening (CellTiter-Glo); details: for HepG2 cytotoxicity 12pt dose response: Maximum inhibition (%): 12pt dose response

recombinant firefly luciferase, sequence (P08659 whole entry): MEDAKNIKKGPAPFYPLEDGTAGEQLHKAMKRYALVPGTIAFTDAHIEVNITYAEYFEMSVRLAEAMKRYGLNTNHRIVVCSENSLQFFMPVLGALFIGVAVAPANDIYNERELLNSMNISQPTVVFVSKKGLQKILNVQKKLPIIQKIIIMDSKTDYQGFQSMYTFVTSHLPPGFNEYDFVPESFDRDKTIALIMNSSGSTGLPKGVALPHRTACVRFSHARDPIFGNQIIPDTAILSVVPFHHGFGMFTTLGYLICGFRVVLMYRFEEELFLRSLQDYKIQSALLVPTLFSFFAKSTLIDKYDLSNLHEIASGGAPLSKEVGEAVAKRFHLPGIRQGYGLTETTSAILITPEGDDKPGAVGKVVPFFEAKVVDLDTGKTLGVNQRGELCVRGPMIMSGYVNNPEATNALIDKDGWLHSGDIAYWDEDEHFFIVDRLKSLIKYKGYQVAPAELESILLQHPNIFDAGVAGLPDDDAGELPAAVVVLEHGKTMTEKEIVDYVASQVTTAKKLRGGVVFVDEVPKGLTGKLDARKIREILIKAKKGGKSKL

Compound | IC50 [1] [µM] | Emax [1] [%] | Emax [2] [%] | IC50 [2] [µM] | IC50 [3] [µM] | HepG2 Cytotoxicity primary screen (2uM): % Inhibition [4] [%] | HepG2 cytotoxicity 12pt dose response: Maximum inhibition (%) [4] [%] | inhibition at 2 µM [3] [%]
CC(C)(C)NC(=O)N1CCC(Oc2ccc(C(F)(F)F)cn2)CC1 [UCSD-0787817] | 11.4 | 93.5 | 13 | > 25 | > 25 | -4.73 | 16.5 | –
CCOc1ccc(S(=O)(=O)Nc2cnc(OC)nc2OC)cc1 [UCSD-0788088] | 5.14 | 71.2 | -1.04 | > 25 | > 25 | – | 61 | 4.64
COc1cccc(CN2CCc3nc(C(=O)NCC(C)C)sc3CC2)c1 [UCSD-0790206] | 9.85 | – | 32 | > 25 | > 25 | -10.23 | 35.9 | –
O=C([C@H]1C[C@@H]2CCN(c3cccc(F)c3)C[C@H]2O1)N1CCCC1 [UCSD-0792262] | 10.3 | 93.8 | 28.4 | > 25 | > 25 | 4.38 | – | –
O=C(NCCCN1CCCCC1)c1ccc(-n2ccc3ccccc32)s1 [UCSD-0795001] | 11.6 | 116 | -4.22 | > 25 | 22.1 | 0.00 | 66.1 | –
CCS(=O)(=O)N1CCc2ccc(NC(=O)Nc3cccc(SC)c3)cc21 [UCSD-0795016] | 1.38 | 98.9 | 12.2 | > 25 | 3.39 | – | 54 | 0
Cc1[nH]/c(=N\C(=O)c2csc(NCC(C)C)n2)sc1C [UCSD-0795190] | 8.85 | 84.4 | 77 | 9.64 | > 25 | – | 42.7 | 0
CC(=O)Nc1ccc(-n2ccc3nc(N4CCCC4)ncc3c2=O)cc1 [UCSD-0795240] | 4.11 | 100 | -8.22 | > 25 | > 25 | – | 8.78 | 0
Cc1ccc(N(CC(=O)c2ccc(Br)cc2)C2=NCCCCC2)cc1 [UCSD-0795313] | 13.6 | 93.4 | 7.66 | > 25 | > 25 | 0.00 | 28.6 | –
COCCCNC1N=C(n2nc(C)cc2C)Nc2sc3c(c21)CCCC3 (centres unmarked) [UCSD-0796603] | 4.36 | 98.7 | 17.3 | > 25 | > 25 | 2.66 | -1.93 | –
CC(=O)Nc1ncc(S(=O)(=O)Nc2ccc3c(c2)OCCO3)s1 [UCSD-0796805] | 9.83 | 92 | 52.2 | > 25 | > 25 | -2.36 | 4.04 | –
CCC1=NC(SCC(=O)c2ccccc2)c2cc(CC)sc2N1 (centres unmarked) [UCSD-0796974] | > 25 | 42.1 | 7.45 | > 25 | > 25 | – | 3.82 | 3.26
Cc1cccc(Nc2cc(C3CCCN(CC(N)=O)C3)ccn2)n1 (centres unmarked) [UCSD-0798772] | < 0.000141 | 89.4 | – | > 8.33 | > 25 | – | 3.72 | 1.68
CCOc1ccc(CN2CCCC(c3cc4ncccc4[nH]3)C2)cc1 (centres unmarked) [UCSD-0798855] | 5.76 | 90.3 | 20.7 | > 25 | > 25 | – | 11.6 | 9.74
Fc1ccc(CN2CCCC(c3cc4ncccc4[nH]3)C2)cc1 (centres unmarked) [UCSD-0798856] | 8.45 | 78.4 | 23.6 | > 25 | > 25 | – | -0.046 | 12
Cn1cncc1CN1CCCC1c1cncc(Oc2ccc(Cl)cc2)n1 (centres unmarked) [UCSD-0800730] | 12.9 | 92.6 | 3.17 | > 25 | > 25 | 0.83 | 38.2 | –
Cc1ncc(CN2CCOC(c3ccc(-c4ccccc4F)cn3)C2)s1 (centres unmarked) [UCSD-0800928] | 11.1 | 85.7 | 19.3 | > 25 | > 25 | -6.23 | 36.5 | –
